Assay results taken from US20090104145A1, “Mixtures of Anthranilamide Invertebrate Pest Control Agents” (priority 2004, published 2009).

Tests used:
Assay in all cases: whole plant or invertebrate
Assay type in all cases: in vivo
[1] = tested on: silverleaf whitefly (Bemisia argentifolii Bellows and Perring); conditions: Table 2B; rate 10 ppm, compound alone
Procedure: (§1) The pest control protection afforded by the mixtures or compositions is not limited, however, to these species. The analysis of synergism or antagonism between the mixtures or compositions was determined using Colby's equation. The average % mortality data for the test compounds alone were inserted into the Colby's equation. If the observed average % mortality was higher than “p”, the expected % mortality, the mixture or composition had synergistic effects. If the observed average % mortality was equal to or lower than the expected mortality, the mixture or composition either had no synergistic effect or an antagonistic effect. In these tests, Compound 1 is the compound of Formula 1.
For evaluating control of silverleaf whitefly (Bemisia argentifolii Bellows and Perring) through contact and/or systemic means, each test unit consisted of a small open container with a 12- to 14-day-old cotton plant inside. This was pre-infested by placing test units into cages infested with adult whiteflies so that oviposition on the cotton leaves could occur. The adults were removed from the plants with an air-blast nozzle, and the test units were capped. The test units were then stored 2 to 3 days before spraying.
(§2) Test compounds were formulated using a solution containing 10% acetone, 90% water and 300 ppm X-77® Spreader Lo-Foam Formula non-ionic surfactant containing alkylarylpolyoxyethylene, free fatty acids, glycols and isopropanol (Loveland Industries, Inc.) to provide the desired concentration in ppm. Formulated test solutions were then applied in 1 mL volumes through a SUJ2 atomizer nozzle with ⅛ JJ custom body (Spraying Systems Co.) positioned 1.27 cm (0.5 inches) above the top of each test unit.
The results for all experimental compositions in this test were replicated three times. After spraying of the formulated test composition, each test unit was allowed to dry for 1 hour and the cap removed. The test units were held for 13 days in a growth chamber at 28° C. and 50-70% relative humidity.

[2] = tested on: corn planthopper (Pereginus maidis); conditions: rate 0.4 ppm
Procedure: as §1, §2
For evaluating control of corn planthopper (Pereginus maidis) through contact and/or systemic means, each test unit consisted of a small open cylindrical container with a 3- to 4-day-old corn (maize) plant (spike) inside. White sand was added to the top of the soil prior to application. Test compounds were formulated and sprayed with 3 replications as described for Test A. After spraying, the test units were allowed to dry for 1 hour before they were post-infested with 10 to 20 corn planthoppers (18- to 20-day-old nymphs) by sprinkling them onto the sand with a salt shaker. A black, screened cap was placed on the top of each container. The test units were held for 6 days in a growth chamber at 19-21° C. and 50-70% relative humidity.

[3] = tested on: cotton melon aphid (Aphis gossypii Glover); conditions: rate 2 ppm
Procedure: as §1, §2
For evaluating control of cotton melon aphid (Aphis gossypii Glover) through contact and/or systemic means, each test unit consisted of a small open container with a 6- to 7-day-old cotton plant inside. This was pre-infested by placing on a leaf of the test plant 30 to 40 aphids on a piece of leaf excised from a culture plant (cut-leaf method). The larvae moved onto the test plant as the leaf piece desiccated. After pre-infestation, the soil of the test unit was covered with a layer of sand.
Test compounds were formulated and sprayed as described for Test A. The applications were replicated three times. After spraying of the formulated test compounds, each test unit was allowed to dry for 1 hour and then a black, screened cap was placed on top. The test units were held for 6 days in a growth chamber at 19-21° C. and 50-70% relative humidity.

Substance: dinotefuran
- % mortality (obs) [1]: 74%
- % mortality (obs) [2]: 86%
- % mortality (obs) [3]: 64%
